Read-outs that look alike come from different tables or passages of the source.
How the values were obtained:
HCoV-OC43 = assay: microbe, parasite or virus in culture; type: cell-based; settings: Betacoronavirus 1, OC43, RD, read-out: EC50, authentic HCoV-OC43
Human CTSD = Human CTSD (Homo sapiens, UniProt P07339); assay: Protease panel, CTSD inhibition; type: biochemical; settings: at a concentration of 20 μM; read-out: Inhibition rate, Human CTSD
SARS-CoV-2 M^pro = SARS-CoV-2 M^pro (Severe acute respiratory syndrome coronavirus 2, UniProt P0DTD1); assay: biochemical
Pharmacokinetics in dogs = type: in vivo; settings: for AUC(0-t) / clearance / half-life / AUC(0-inf) / MRT inf / Cmax / Tmax / bioavailability: male, Beagle, dog, plasma; for AUC(0-inf): read-out: AUCINF_obs; for MRT inf: read-out: MRTINF_obs
Description: Three groups of male Beagle dogs weighing 9 to 12 kg (2 animals per group) were intravenously (1 mg/kg), subcutaneously (1 mg/kg) and orally (5 mg/kg) dosed 14a in a vehicle consisting of 5% dimethyl sulfoxide, 7.5% Kolliphor HS 15 and 87.5% saline (volume ratio). Serial blood samples were collected at 0.083, 0.25, 0.75, 2.0, 4.0, 6.0, 8.0 and 24.0 h for the intravenous and […] groups and 0.25, 0.5, 1.0, 2.0, 4.0, 6.0, 8.0 and 24.0 h for the oral group after dose administration. Two groups of male Beagle dogs weighing 9 to 12 kg (3 animals per group) were intravenously (1 mg/kg) and subcutaneously (1 mg/kg) dosed 14b in a vehicle consisting of 5% dimethyl sulfoxide, 5% ethanol, 40% polyethylene glycol 400 and 50% saline (volume ratio). Serial blood samples were collected at 0.083, 0.25, 0.50, 1.00, 2.00, 4.00, 8.00 and 24.0 h after dose administration. A group of 3 male Beagle dogs weighing 9 to 12 kg was administered an oral dose of 5 mg/kg 14b in a vehicle consisting of 5% dimethyl sulfoxide and 95% hydroxypropyl methyl cellulose solution (0.5% hydroxypropyl methyl cellulose in deionized water in weight ratio) (volume ratio). Serial blood samples were collected at 0.25, 0.50, 1.00, 2.00, 4.00, 8.00 and 24.0 h after dose administration. All blood samples were obtained by centrifugation and stored at -20 °C until analysis.
Plasma compound concentrations were obtained through HPLC-MS/MS, and the pharmacokinetics parameters were analyzed by Phoenix WinNonlin 7.0. The following parameters were determined: Cmax (maximal concentration of drug in plasma), AUClast or AUCINF_obs (area under the concentration curve from the time of dosing to the last measurable concentration or from the time of dosing to infinity, respectively). Tmax (time of maximum observed concentration), T1/2 (half-life of elimination), MRTINF_obs (mean residence time extrapolated to infinity for a substance administered by indicated dosing using observed last concentration), CL (total body clearance), Vss (volume of distribution at steady state) and F (absolute bioavailability, F = (AUCx × Di.v.)/( AUCi.v. × Dx) × 100%, where x is i.p., s.c. or p.o., and AUC is AUCINF_obs).The pharmacokinetic parameters were analyzed by Phoenix WinNonlin 7.0.

[1] = system: Huh-7, Vero-E6, RD and 293T-ACE2-TMPRSS2 cell lines; assay: Cell Counting Kit-8 (CCK8) cytotoxicity assay; type: cell-based; settings: 293T-ACE2-TMPRSS2 cells
Description: Cell viability was performed in a 96-well plate with triplicate for each concentration. All compounds were diluted two times with nine gradients starting at 200, 250. or 500 micromoles in maintenance medium. After 48 h incubation, the supernatant was removed, and 10 μL WST-8 (2-(2-methoxy-4-nitrophenyl)-3-(4-nitrophenyl)-5-(2,4-disulfophenyl)-2H-tetrazolium sodium salt) in maintenance medium was added to the cells. After incubation at 37 °C for 2 h, the plates were measured at 450 nm using a spectrophotometer (BioTek), and cell viability was calculated. All compounds were diluted with maintenance medium containing 2%FBS of DMEM.

[2] = system: LPS-induced acute pulmonary inflammation; assay: Mouse model of LPS-induced acute pulmonary inflammation; type: in vivo; settings: 100 mg/kg intraperitoneal, 24 h after LPS induction; for Expression levels of inflammatory cytokines (IL-1β, IL-6, TNFα) and chemokines (CCL3, CSF3, CXCL10) in the lung tissues: mice
Description: C57BL/6 mice were obtained from Beijing HFK Bioscience Co., Ltd. (Beijing, China). Animals 6–8 weeks of age were used for the studies and were maintained with free access to pellet food and water in plastic cages at 21 ± 2 °C and kept on a 12 h light/dark cycle. Mice were randomly divided into four groups, each group containing eight mice. The mice were intraperitoneally administered with 100 mg/kg of 14a or 100 mg/kg of 14b or vehicle control 1 h prior to LPS challenge. The compounds were dissolved in solvent containing 5% dimethyl sulfoxide, 5% ethanol, 40% polyethylene glycol 400 and 50% saline (volume ratio). The mice were anesthetized by Zoletil 50. Then mice in the normal group were intranasally inoculated with 20 μL normal saline, and mice in the LPS challenge group were intranasally inoculated with 20 μL (5 μg/μL) LPS to induce pneumonia. At 12 h post-induction, the mice were again intraperitoneally administered with 100 mg/kg of 14a or 100 mg/kg of 14b or vehicle control. Twenty-four hours later, mice were euthanized, and the lung tissues were harvested for further study.
RNA isolation, cDNA synthesis, and RT-qPCR. Total RNA was isolated from lung tissues using RNA extraction reagent (Vazyme, R401-01). cDNA was synthesized using the HiScript II Q RT SuperMix (Vazyme, R223-01), according to the manufacturer’s instructions. RT-qPCR was performed using ChamQ SYBR qPCR Master Mix (Vazyme, Q331-02) in the CFX96TM Real Time PCR Detection System (Bio-Rad, Shanghai, China). The profile of thermal cycling consisted of initial denaturation at 95 °C for 30 s, 40 cycles at 95 °C for 5 s and 60 °C for 30 s. All primer sequences used in this study are listed in Supplementary Table S5.
Hematoxylin and eosin (H&E) staining. Lung tissue samples were fixed in 4% paraformaldehyde and embedded in paraffin (Thermo Scientific, 8331). […] was sectioned (5 μm) for H&E staining, and the stained sections were analyzed by a pathologist using a light microscope (Olympus, Tokyo, Japan). Lung injury was evaluated based on histological features, including alveolar septal thickening and inflammatory cell infiltration.

Human CTSD, sequence (P07339 65-412): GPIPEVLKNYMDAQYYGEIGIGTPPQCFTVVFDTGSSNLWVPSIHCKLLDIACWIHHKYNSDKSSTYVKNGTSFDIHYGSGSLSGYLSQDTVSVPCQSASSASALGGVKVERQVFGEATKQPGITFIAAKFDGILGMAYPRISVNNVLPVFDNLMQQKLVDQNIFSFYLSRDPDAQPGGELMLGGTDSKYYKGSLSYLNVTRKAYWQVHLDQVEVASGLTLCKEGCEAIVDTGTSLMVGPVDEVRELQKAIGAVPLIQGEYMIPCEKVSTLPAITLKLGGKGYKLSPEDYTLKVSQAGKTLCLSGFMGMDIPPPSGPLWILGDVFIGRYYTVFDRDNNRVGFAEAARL

Compound	EC50 (HCoV-OC43) [nM]	inhibition (Human CTSD) [%]	IC50 (SARS-CoV-2 M^pro) [nM]	Vss_obs (Pharmacokinetics in dogs; i.v. (1 mg/kg)) [L/kg]	AUC(0-t) (Pharmacokinetics in dogs; iv, i.v. (1 mg/kg)) [ng·h/mL]	clearance (Pharmacokinetics in dogs; iv, i.v. (1 mg/kg)) [mL/min/kg]	half-life (Pharmacokinetics in dogs; iv, i.v. (1 mg/kg)) [h]	AUC(0-inf) (Pharmacokinetics in dogs; iv, i.v. (1 mg/kg)) [ng·h/mL]	MRT inf (Pharmacokinetics in dogs; iv, i.v. (1 mg/kg)) [h]	AUC(0-t) (Pharmacokinetics in dogs; po, p.o. (5 mg/kg)) [ng·h/mL]	Cmax (Pharmacokinetics in dogs; po, p.o. (5 mg/kg)) [ng/mL]	Tmax (Pharmacokinetics in dogs; po, p.o. (5 mg/kg)) [h]	bioavailability (Pharmacokinetics in dogs; po, p.o. (5 mg/kg)) [%]	half-life (Pharmacokinetics in dogs; po, p.o. (5 mg/kg)) [h]	AUC(0-inf) (Pharmacokinetics in dogs; po, p.o. (5 mg/kg)) [ng·h/mL]	MRT inf (Pharmacokinetics in dogs; po, p.o. (5 mg/kg)) [h]	AUC(0-t) (Pharmacokinetics in dogs; sc, s.c. (1 mg/kg)) [ng·h/mL]	Cmax (Pharmacokinetics in dogs; sc, s.c. (1 mg/kg)) [ng/mL]	Tmax (Pharmacokinetics in dogs; sc, s.c. (1 mg/kg)) [h]	bioavailability (Pharmacokinetics in dogs; sc, s.c. (1 mg/kg)) [%]	also measured
O=C(NCc1ccccc1)C(=O)[C@H](C[C@@H]1CCCNC1=O)NC(=O)[C@H](Cc1ccc(F)cc1)NC(=O)c1cc2ccccc2o1 [14a, N-((S)-1-(((S)-4-(benzylamino)-3,4-dioxo-1-((S)-2-oxopiperidin-3-yl)butan-2-yl)amino)-3-(4-fluorophenyl)-1-oxopropan-2-yl)benzofuran-2-carboxamide]	3380 ± 2070	21 ± 1	12600	1.05	732	24.4	1.04	735	0.74	351	154	0.75	10	1.33	357	1.86	881	116	0.5	120	half-life (Pharmacokinetics in dogs; sc, s.c. (1 mg/kg)): 3.96 h; AUC(0-inf) (Pharmacokinetics in dogs; sc, s.c. (1 mg/kg)): 893 ng·h/mL; MRT inf (Pharmacokinetics in dogs; sc, s.c. (1 mg/kg)): 5.14 h; Cytotoxicity [1]: very low or no cytotoxicity; Lung histopathology (inflammatory cell infiltration, alveolar septal thickening) compared with vehicle-treated mice [2]: reduced inflammatory cell infiltration and alveolar septal thickening; Expression levels of inflammatory cytokines (IL-1β, IL-6, TNFα) and chemokines (CCL3, CSF3, CXCL10) in the lung tissues [2]: reduced
O=C(NCc1ccccc1)C(=O)[C@H](C[C@@H]1CCCNC1=O)NC(=O)[C@H](CC1CCCCC1)NC(=O)c1cc2ccccc2o1 [14b, N-((S)-1-(((S)-4-(benzylamino)-3,4-dioxo-1-((S)-2-oxopiperidin-3-yl)butan-2-yl)amino)-3-cyclohexyl-1-oxopropan-2-yl)benzofuran-2-carboxamide]	1310 ± 320	29 ± 2	990	1.59 ± 0.557	544 ± 148	31.9 ± 7.8	1.07 ± 0.29	546 ± 148	0.82 ± 0.11	271 ± 166	235 ± 173	0.58 ± 0.38	10	2 ± 0.85	283	2.19 ± 0.86	948 ± 46	151 ± 36	2.08 ± 1.88	178	half-life (Pharmacokinetics in dogs; sc, s.c. (1 mg/kg)): 3.19 ± 1.57 h; AUC(0-inf) (Pharmacokinetics in dogs; sc, s.c. (1 mg/kg)): 973 ± 54 ng·h/mL; MRT inf (Pharmacokinetics in dogs; sc, s.c. (1 mg/kg)): 4.69 ± 1.25 h; Cytotoxicity [1]: very low or no cytotoxicity; Lung histopathology (inflammatory cell infiltration, alveolar septal thickening) compared with vehicle-treated mice [2]: reduced inflammatory cell infiltration and alveolar septal thickening; Expression levels of inflammatory cytokines (IL-1β, IL-6, TNFα) and chemokines (CCL3, CSF3, CXCL10) in the lung tissues [2]: reduced

Source: publication PMC10914734 (Signal Transduction and Targeted Therapy, 2024)
